Entries after “also recorded” stand apart in the source; their conditions may differ. Marks after values point to notes of the source that are not given here.
Tests used:
[1] = tested on: vascular endothelial cell proliferation; details: endothelial versus tumor cell proliferation; cited from earlier work
[2] = tested on: Tumor cell lines (Lewis lung carcinoma or MDA-MB-231); assay: Wash-out in vitro anti-proliferation studies (cell counts) with ENMD-1198; format: cell-based
Protocol: Tumor cell lines (Lewis lung carcinoma or MDA-MB-231) were treated in vitro for varying times with varying concentrations of ENMD-1198. Over the course of a three-day study, on each study day the cells were exposed to ENMD-1198 for varying times (1, 2, 4, 6, or 24 hours) at the indicated concentrations. The medium was then removed and replaced with medium without ENMD-1198 for the remainder of each 24-hour period. For the 24-hour exposure wells, the medium was changed every day to provide 72 hours continuous exposure. Anti-proliferative activity was determined by cell counts after the third day of treatment.

[3] = Plasma 2ME2 pharmacokinetics in non-tumor bearing C57BL/6 mice; format: in vivo; details: for Cmin / Tmax / T½ / Cmax / AUC0-24: i.p.
Protocol: On day 7, plasma samples were collected at selected time points, and plasma unconjugated 2ME2 levels were determined using LC-MS/MS methodology.
The data for 0.5 mg q.i.d. over the first six hours was used to model steady state levels over a 24 hr. time period as shown in FIG. 2. Pharmacokinetic parameters were determined by noncompartmental analysis using WinNonLin (Pharsight, Mountain View, Calif.).
(§1) In further support of this paradigm, a significant inhibition of pulmonary metastases was obtained in tumor-bearing mice given 2ME2 by continuous infusion using Alzet pumps. Three days after injection of LLC cells, therapy was initiated i.p. with either vehicle control or with 2ME2 delivered through 7-day osmotic pumps (see FIG. 3A). The daily target levels of 2ME2 were calculated assuming an average pump rate of […]. To achieve a target level of 200 mg/kg/day, the concentration of 2ME2 in the osmotic pumps was prepared at 150 mg/mL. Asterisks indicate groups statistically different from vehicle control (α=0.05) as shown in A. To determine the PK profile of 2ME2 using this delivery scheme, non-tumor bearing male C57BL/6 mice (6 weeks of age) were treated i.p. for up to 7 days with 2ME2 at 1.8 mg/day (˜100 mg/kg/day) using 7-day osmotic pumps. On days 2, 4, and 7, plasma samples were collected and plasma 2ME2 levels were determined as described above (see FIG. 3B).

H2122 human NSCLC cells = assay: Orthotopic H2122 NSCLC rat tumor model, survival; format: in vivo, rats
Protocol: Female athymic nude rats were injected i.t. with H2122 human NSCLC cells (1×10^6 in 0.2 mL). Seven days later, daily therapy was initiated p.o. with either vehicle control or 2ME2 at 10 or 60 or 300 mg/kg/d (n=15 rats/group). Animals were monitored closely for signs of morbidity and median survival times (MST) were determined. The study was terminated 50 days post tumor cell injection. In a separate cohort of non-tumor-bearing rats, plasma 2ME2 concentrations were determined at selected time points following a single oral gavage at 60 and 300 mg/kg. The PK data in Table 3 represents the range of 2ME2 concentrations in a 24 hour period. […] Using relevant PK data for any given formulation in a human or animal, it is possible for one skilled in the art to devise a dosing strategy—a combination of dose level and dose frequency—which will result in substantially continuous maintenance of the plasma level of the agent within the desired concentration range and so maximize the pharmacological activity, in this case anti-tumor activity.

[4] = tested on: Tumor cell lines (Lewis lung carcinoma or MDA-MB-231); assay: Wash-out in vitro anti-proliferation studies (BrdU) with 2ME2; format: cell-based
Protocol: To mimic the effect of cyclic levels of 2ME2 seen after daily dosing, and to compare this to the effects of continuous exposure to 2ME2, we carried out a series of wash-out in vitro anti-proliferation studies. Tumor cell lines (Lewis lung carcinoma or MDA-MB-231) were treated in vitro for varying times with varying concentrations of 2ME2. Over the course of a three-day study, on each study day the cells were exposed to 2ME2 for varying times (1, 2, 4, 6, or 24 hours) at the indicated concentrations. The medium was then removed and replaced with medium without 2ME2 for the remainder of each 24-hour period. Anti-proliferative activity was determined using a BrdU proliferation assay according to the manufacturer's instructions after the third day of treatment (see FIGS. 4A and 4B).

[5] = Plasma 2ME2 pharmacokinetics in non-tumor bearing C57BL/6 mice; format: in vivo; details: ad libitum drinking water, range over a 24 hr period
Lewis lung carcinoma = Lewis lung carcinoma experimental pulmonary metastasis model; format: in vivo, mice; details: for antitumor activity, T/C: 100 mg/kg/day
From the text: A pharmacodynamic paradigm relating 2ME2 pharmacokinetics to activity in vivo was developed. Dose-response relationships were established for 2ME2 following administration by (a) i.v. bolus administration, (b) oral gavage, (c) i.p. bolus injection, (d) i.p. dose fractionation, (e) continuous i.p. infusion, or (f) drinking water ad libitum in animal models, including an experimental pulmonary metastatic Lewis lung carcinoma model, primary tumor cell xenograft models, and a model of rheumatoid arthritis. Plasma 2ME2 concentration was temporally assessed by GC-MS or LC-MS/MS methodology, and pharmacokinetic parameters were defined at effective doses.
These studies assess the effect of route of administration on the anti-tumor activity of 2ME2 in an orthotopic model of murine lung cancer. Three days following the intravenous injection of Lewis lung carcinoma (“LLC”), groups of ten mice were treated with 2ME2 (200 mg/kg) once every 24 hours (q.d.) by either oral gavage (p.o.) or intraperitoneal (i.p.) injection.
FIG. 1, Panel B: 2.5×10^5 Lewis lung carcinoma cells in a volume of 0.2 ml were i.v. injected into the lateral tail vein of C57BL/6 male mice, 5-6 weeks of age (Jackson Labs). Treatment was initiated three days later by daily i.v. injection with 2ME2. Following the final day of therapy, mice were sacrificed, lungs removed, washed in phosphate buffered saline and weighed. Results are expressed as lung weight gain in treated versus control animals.
Dose-dependent inhibition of pulmonary metastases was observed following daily bolus administration of 2ME2. Fractionating a bolus q.d. injection (once every 24 hours, 2 mg/injection, 100 mg/kg/day) into four smaller, equal doses (q6hr, 0.5 mg/injection, 100 mg/kg/day) improved the antitumor activity of 2ME2 (T/C=0.30 and 0.05, respectively, p<0.05).
as §1
In further support of this paradigm, a significant inhibition of pulmonary metastases was obtained in tumor-bearing mice given 2ME2 ad libitum access through their drinking water.

LLC cell line = assay: Wash-out in vitro proliferation study mimicking i.v. dosing; format: cell-based; details: 3microM 2ME2 for 2 hours, then medium alone
Protocol: FIG. 1, Panel C: We designed a “wash-out” in vitro proliferation study to mimic the exposure profile following i.v. dosing. The LLC cell line was plated in 96-well plates. After 24 hours, medium containing 3microM 2ME2 was added. Cells were exposed to 3microM 2ME2 for 2 hours. The medium was then removed and replaced with medium alone (medium: DMEM/F12 (1:1)+10% FBS+2mM L-Glutamine).

[6] = tested on: collagen-induced arthritis; assay: Rat collagen-induced arthritis model, radiographic scores; format: in vivo
From the text: Using relevant PK data for any given formulation in a human or animal, it is possible for one skilled in the art to devise a dosing strategy-a combination of dose level and dose frequency-which will result in substantially continuous maintenance of the plasma level of the agent within the desired concentration range and so maximize the pharmacological activity, in this case anti-arthritic or anti-inflammatory activity.

[7] = short-term incubation, even at high concentrations
[8] = 0.5 q.i.d., modelled from first six hours

SMILES: CO[C@@H]1[C@H](OC(=O)NC(=O)CCl)CC[C@]2(CO2)[C@H]1[C@@]1(C)O[C@@H]1CC=C(C)C [AGM-1470]
- lower concentration for half-maximal inhibition of vascular endothelial cell proliferation than of tumor cell proliferation [1]: 4 logs

SMILES: COc1cc2c(cc1C(N)=O)CC[C@@H]1[C@@H]2CC[C@]2(C)C=CC[C@@H]12 [ENMD-1198]
- inhibition of proliferation in vitro ([2]; continuous exposure (72 hours)): maximal inhibition of proliferation
- anti-proliferative activity in vitro [2, 7]: does not result in much anti-proliferative activity

SMILES: COc1cc2c(cc1O)CC[C@@H]1[C@@H]2CC[C@]2(C)[C@@H](O)CC[C@@H]12 [Formulation 2ME2, 2-methoxyestradiol]
- Cmin ([3]; 0.5 q.d., day 7): 1.46 ng/mL
- Tmax ([3]; 0.5 q.d., day 7): 0.5 h
- T½ ([3]; 0.5 q.d., day 7): 1.1 h
- Cmax ([3]; 0.5 q.d., day 7, plasma unconjugated 2ME2): 325 ng/mL
- AUC0-24 ([3]; 0.5 q.d., day 7, = AUC0-6*4): 826.5^a ng/mL*hr
- AUC0-24 [3, 8]: 836.1 ng·h/mL
- Cmin [3, 8]: 1.50 ng/mL
- Tmax [3, 8]: 18.5 h
- T½ [3, 8]: 1.1 h
- Cmax ([3]; 0.5 q.i.d., steady state over 24 hr modelled from first six hours): 326.09 ng/mL
- AUC0-24 ([3]; 2.0 q.d., day 7): 13570.9 ng·h/mL
- Cmax ([3]; 2.0 q.d., day 7): 14070 ng/mL
- Cmin ([3]; 2.0 q.d., day 7): 0.86 ng/mL
- Tmax ([3]; 2.0 q.d., day 7): 0.5 h
- T½ ([3]; 2.0 q.d., day 7): 3.2 h
- plasma exposure levels ([3]; continuous i.p. infusion, Alzet osmotic pumps, ~100 mg/kg/day): 9 to 25 ng/mL
- % Survival on Day 50 (H2122 human NSCLC cells; 2ME2 10 mg/kg/d p.o.): 13%
- Median Survival Time (H2122 human NSCLC cells; 2ME2 10 mg/kg/d p.o.): 18.5 days
- % Survival on Day 50 (H2122 human NSCLC cells; 2ME2 60 mg/mk/d p.o.): 20%
- Median Survival Time (H2122 human NSCLC cells; 2ME2 60 mg/mk/d p.o.): 26 days
- % Survival on Day 50 (H2122 human NSCLC cells; 2ME2 300 mg/kg/d p.o.): 47%
- Median Survival Time (H2122 human NSCLC cells; 2ME2 300 mg/kg/d p.o.): 43 days
- increase in median survival time as compared to diluent-treated controls (H2122 human NSCLC cells; oral gavage, plasma 2ME2 3-17 ng/mL): 2.5 fold
- inhibition of proliferation in vitro ([4]; continuous exposure): maximal inhibition of proliferation
- anti-proliferative activity in vitro [4, 7]: does not result in much anti-proliferative activity
- plasma 2ME2 concentrations [5]: 3 to 15 ng/mL
- inhibition of pulmonary metastases, T/C (Lewis lung carcinoma; 2ME2 200 mg/kg q.d. i.p. injection): 0.17
- inhibition of pulmonary metastases, T/C (Lewis lung carcinoma; 2ME2 200 mg/kg q.d. oral gavage (p.o.)): 0.28
- inhibition of pulmonary metastases, T/C (Lewis lung carcinoma; 2ME2 ad libitum through drinking water): 0.16
- antitumor activity, T/C (Lewis lung carcinoma; bolus q.d., 2 mg/injection): 0.30
- growth inhibition of pulmonary metastases (Lewis lung carcinoma; continuous i.p. infusion, Alzet osmotic pumps, calculated dose ~100 mg/kg/day): 89%
- anti-tumor activity in vivo (lung weight gain) (Lewis lung carcinoma; daily i.v. injection, transiently high levels): did not result in significant anti-tumor activity
- antitumor activity, T/C (Lewis lung carcinoma; q6hr, 0.5 mg/injection): 0.05
- anti-proliferative effect of transient exposure (LLC cell line): poor anti-proliferative effect; also recorded: did not result in much anti-proliferative activity
- radiographic scores on day 28 ([6]; 2ME2 50 mg/kg p.o. b.i.d): 2.11±0.18
- radiographic scores on day 28 ([6]; 2ME2 60 mg/kg s.c. continuous infusion (Alzet pumps)): 1.5±0.18
- radiographic scores on day 28 ([6]; 2ME2 100 mg/kg p.o. q.d.): 2.88±0.21

Reference: patent publication US20060116360A1, “Method of administering anti-angiogenic agents and a method of treating disease using same” (priority 2004, published 2006)
